In patent US7820624B2, “Peptide ligands” (ICH Productions Limited, priority 2003, dated 2010):

Key:
[1] = test system: human monocyte-derived immature dendritic cells; assay type: cell-based; details: 100,000 viral particles/cell
Text: Ad5 particles with the DC-binding peptides incorporated into the HI loop of the fibre protein were produced essentially as described previously ^12. Complementary oligonucleotides encoding the peptide sequences SHVKLNS [SEQ. ID. NO.:29] (5′ CC GGAAGCCACGTGAAGCTGAACAGCG 3′ [SEQ. ID. NO.:58] and 5′ CC GGCGCTGTTCAGCTTCACGTG GCTT 3′[SEQ. ID. NO.:59]) or APSNSTA [SEQ. ID. NO.:15] (5′ CC GGAGCCCCCAGCAACAGCACCGCCG 3′ [SEQ. ID. NO.:61] and 5′ CC GGCGGCGGTGCTGTTGCTGGG GGCT 3′ [SEQ. ID. NO.:62]) were synthesized (Operon Technologies, Alameda Calif. U.S.A.). The oligo pairs were then kinased, annealed, and ligated into the unique BspE1 site of pDV137 ^12, an expression construct encoding an Ad5 fibre protein with a double point mutant (KO1) which blocks CAR binding and a linker/restriction site in the HI loop, to create pDV178 (SHVKLNS) and pDV179 (APSNSTA). Following sequence confirmation, the plasmids were used to trans-complement the fibre-deleted vector Ad5.GFP.δF^18 by transient transfection into 293 cells as described ^19. Viral particles were purified by freeze/thaw lysis and CsCl gradient centrifugation and dialyzed into 40 mM TRIS-pH 8.1/0.9% NaCl/10% glycerol and stored at −80° C. Virus was quantified by protein assay (BioRad, Hercules Calif., U.S.A.) against BSA standards and using the relation 1 μg viral protein=4×10^9 viral particles.
Retargeted adenoviruses carrying a peptide A or B were used for the transduction experiments described below. Wild type adenovirus type 5 and type 5 adenovirus having a KO1 fibre, all supplied by Dr Dan von Seggern, and as described in Nicklin 2001 Mol Ther 2001 Dec.; 4(6):534-42), were used as controls.
(§1) Day 6 dendritic cells (see Example 1(v) above), or mouse bone marrow derived dendritic cells or mouse Sca1+ve stem cells, see (i) and (ii) above, were plated at 5×10^4 cells per well in a 48 well plate in 500 μl complete medium and allowed to settle for 3 hours at 37° C. Transductions were carried out in complete media, with virus being added at 100,000 viral particles/cell for 24 hours. Cells were harvested by scraping, spun down at 650 g (2000 rpm) for 5 min, resuspended in 300 μl PBS, and kept on ice before analysis. Viral transduction as determined by percentage of GFP positive cells was measured by FACS analysis. To measure percentage viability, 10 μl of 7-amino-actinomycin D (7AAD; Sigma, Poole, Dorset) was added immediately prior to analysis. Viral transduction of macrophages was carried out at 10,000 particles/cell in medium containing 2.5% FCS. For other cell types, cells were seeded overnight at 5×10^4 cells per well in 24-well plates in the appropriate media. Adenovirus was added in OptiMEM at 10,000 viral particles/cell, 1 ml per well in triplicate and incubated for 24 h at 37° C. Cells were then washed twice in PBS, trypsinised, triplicate wells pooled, spun down at 350×g for 5 min and resuspended in 300 μl PBS before analysis by flow cytometry where cell viability was to be measured, 10 μl 7AAD was added just prior to analysis.
Cells were pooled from three separate transduction experiments for the calculation of results.

[2] = test system: mouse Sca1-positive stem cells; experiment: Adenoviral transduction of mouse Sca1+ve stem cells; assay type: cell-based
Description: Mouse bone marrow cells were isolated as above and Sca1+ve cells were isolated using MACs Sca1 microbeads (Miltenyi Biotec, Bisley, U.K.). These cells were plated at 7×10^4 cells/500 μl in RPMI with Glutamax-1 containing 30% FCS and penicillin/streptomycin and the following cytokines murine SCF (50 ng/ml; Preprotech, London, UK), IL-6 (20 ng/ml; Preprotech, London, UK) and Flt3-L (10 ng/ml) (R&D Systems, Oxford, U. K.).
as §1, with “To measure percentage viability, 10 μl of 7-amino-actinomycin D (7AAD; Sigma, Poole, Dorset) was added immediately prior to analysis. Viral transduction of macrophages was carried out at 10,000 particles/cell in medium containing 2.5% FCS. For other cell types, cells were seeded overnight at 5×10^4 cells per well in 24-well plates in the appropriate media. Adenovirus was added in OptiMEM at 10,000 viral particles/cell, 1 ml per well in triplicate and incubated for 24 h at 37° C.” left out

## SHVKLNS (Synthetic peptide binding to dendritic cells)
[1]; complete medium, 24 hours, donor A
  Transduction (% GFP positive cells), donor A: 64.2%
[1]; complete medium, 24 hours, donor B
  Transduction (% GFP positive cells), donor B: 78.9%
[1]; donor A, 7AAD
  Percentage cell death, donor A: (12.0) %
[1]; donor B, 7AAD
  Percentage cell death, donor B: (13.3) %
[2]
  Transduction efficiency: 5.4%
